Reference: US20240245658A1, “TAAR1 AND SEROTONIN MODULATORS, AND PHARMACEUTICAL COMPOSITIONS, AND METHODS OF USE THEREOF” (Sunovion Pharmaceuticals Inc., priority 2021, published 2024)
Like-named read-outs stand apart in the source and are kept apart here.

Assays:
Type in all cases: cell-based
human 5-HT2A receptor = target: T1, human 5-HT2A receptor (Homo sapiens, UniProt P28223); assay: 5HT2A Antagonism Assay (Euroscreen FAST-05051), IP-One HTRF
T1 construct: host or cells: CHO-K1
Summary of the method: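 CHO-K1 cells expressing receptor, 20,000/well, co-incubated with test compound and reference agonist at its EC80 for 60 min at 37 °C. IP1 accumulation read by HTRF after ~1 h detection at room temperature. Compounds tested in duplicate at 0.3–10,000 nM.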

human 5-HT7 receptor = target: T2, human 5-HT7 receptor (Homo sapiens, UniProt P34969); assay: 5HT7 Antagonism Assay (Euroscreen FAST-0499C), cAMP HTRF; conditions: CHO-K1 cells expressing human 5-HT7, reference agonist at EC80, cAMP HTRF
T2 construct: host or cells: CHO-K1
T2 sequence (P34969 whole entry): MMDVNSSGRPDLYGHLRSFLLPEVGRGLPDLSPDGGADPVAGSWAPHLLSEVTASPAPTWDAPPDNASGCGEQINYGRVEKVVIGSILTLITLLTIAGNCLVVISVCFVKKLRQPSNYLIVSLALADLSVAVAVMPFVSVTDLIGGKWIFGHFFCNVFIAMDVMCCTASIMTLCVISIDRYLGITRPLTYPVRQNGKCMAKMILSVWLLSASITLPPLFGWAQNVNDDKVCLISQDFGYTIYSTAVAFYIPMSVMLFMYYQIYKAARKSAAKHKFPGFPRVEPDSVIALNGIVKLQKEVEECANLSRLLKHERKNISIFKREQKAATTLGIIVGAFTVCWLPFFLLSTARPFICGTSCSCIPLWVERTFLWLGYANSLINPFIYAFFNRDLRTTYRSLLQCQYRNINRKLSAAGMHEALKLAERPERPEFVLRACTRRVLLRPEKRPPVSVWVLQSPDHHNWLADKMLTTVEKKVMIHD
Summary of the method: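 CHO-K1 cells expressing human 5-HT7, 3000 per well in Krebs-Ringer HEPES with 1 mM IBMX, were exposed for 30 minutes at room temperature to compound plus reference agonist at its EC80. cAMP was read by HTRF after 1 hour; compounds were tested in duplicate from 0.3 to 10,000 nM.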

human TAAR1 receptors = target: T3, human TAAR1 receptors (Homo sapiens, UniProt Q96RJ0); assay: TAAR1 Agonism Assay: cAMP HTRF assay for Gs coupled receptor TAAR1 (Euroscreen FAST-0987C); conditions: CHO-K1 cells expressing human TAAR1, cAMP HTRF
T3 construct: host or cells: CHO-K1
T3 sequence (Q96RJ0 1-339): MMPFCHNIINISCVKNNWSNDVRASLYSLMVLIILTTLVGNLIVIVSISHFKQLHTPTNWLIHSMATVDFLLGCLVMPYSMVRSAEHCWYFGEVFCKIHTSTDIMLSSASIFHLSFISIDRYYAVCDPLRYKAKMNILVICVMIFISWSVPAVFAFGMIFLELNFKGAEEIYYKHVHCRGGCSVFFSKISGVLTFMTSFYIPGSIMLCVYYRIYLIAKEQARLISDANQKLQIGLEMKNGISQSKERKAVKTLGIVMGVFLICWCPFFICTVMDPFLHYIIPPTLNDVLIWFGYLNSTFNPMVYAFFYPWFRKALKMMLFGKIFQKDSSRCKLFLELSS
Summary of the method: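 cAMP accumulation detected by HTRF fluorescence ratio, reagents added in lysis buffer and incubated 1 h at about room temperature. Beforehand, cells (about 3,000 per well) sat with test compound at ten concentrations from 0.3 to 10,000 nM in duplicate for roughly 30 min at about room temperature; tyramine dose-response run alongside.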

[1] = read-out: 5-HT2A (IC50), CHO-K1 cells expressing human 5-HT2A, reference agonist at EC80, IP-One
[2] = 5-HT2A (IC50), CHO-K1 cells expressing human 5-HT2A, reference agonist at EC80, IP-One
[3] = CHO-K1 cells expressing human 5-HT2A, reference agonist at EC80, IP-One, read-out: 5-HT2A (IC50)

T1 sequence (P28223 whole entry): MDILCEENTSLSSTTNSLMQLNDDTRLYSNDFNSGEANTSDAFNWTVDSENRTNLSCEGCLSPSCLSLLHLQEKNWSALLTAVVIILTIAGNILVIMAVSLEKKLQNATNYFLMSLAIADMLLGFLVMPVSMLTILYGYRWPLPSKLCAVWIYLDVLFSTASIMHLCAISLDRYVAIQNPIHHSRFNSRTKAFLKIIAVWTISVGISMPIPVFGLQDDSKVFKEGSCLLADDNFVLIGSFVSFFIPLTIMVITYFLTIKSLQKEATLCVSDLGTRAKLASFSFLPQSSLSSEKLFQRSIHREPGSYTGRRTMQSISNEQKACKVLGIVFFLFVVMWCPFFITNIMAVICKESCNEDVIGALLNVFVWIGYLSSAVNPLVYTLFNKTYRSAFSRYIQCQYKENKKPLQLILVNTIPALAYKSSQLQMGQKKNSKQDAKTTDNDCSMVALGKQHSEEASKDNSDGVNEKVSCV

Compound | IC50 (human 5-HT2A receptor; [1]) [nM] | IC50 (human 5-HT7 receptor) [µM] | EC50 (human TAAR1 receptors) [nM] | IC50 (human 5-HT2A receptor; [2]) [nM] | IC50 (human 5-HT2A receptor; [3]) [nM]
CNCC1Cc2ccc(C)cc2Oc2cccnc21 (single isomer, unassigned) [Compound 135, (R*)—N-methyl-1-(7-methyl-10,11-dihydrobenzo[6,7]oxepino[3,2-b]pyridin-11-yl)methanamine] | < 1000 | 1 to 10 | < 1000 | – | –
NCC1Cc2ccccc2Oc2c(F)cccc21 (single isomer, unassigned) [Compound 100, (R*)-(6-fluoro-10,11-dihydrodibenzo[b,f]oxepin-10-yl)methanamine] | – | ≥ 10 | < 1000 | < 1000 | –
CCNCC1Cc2ccccc2Oc2cccnc21 (single isomer, unassigned) [Compound 109, (R*)-1-(10,11-dihydrobenzo-[6,7]oxepino[3,2-b]pyridin-11-yl)-N-ethylmethanamine] | – | ≥ 10 | < 1000 | 1000 to 10000 | –
CNC[C@H]1Cc2ncc(F)cc2Oc2ccccc21 (single isomer, unassigned) [Compound 38, (S*)-1-(3-fluoro-10,11-dihydrobenzo[6,7]oxepino[3,2-b]pyridin-10-yl)-N-methylmethanamine] | – | 1 to 10 | 1000 to 10000 | – | < 1000
CNCC1Cc2ccccc2Oc2cccnc21 (single isomer, unassigned) [Compound 6, (R*)-1-(10,11-dihydrobenzo-[6,7]oxepino[3,2-b]pyridin-11-yl)-N-methylmethanamine] | – | ≥ 10 | < 1000 | 1000 to 10000 | –
NCC1Cc2c(F)cncc2Oc2ccccc21 (single isomer, unassigned) [Compound 154, (S*)-(4-fluoro-5,6-dihydrobenzo[6,7]oxepino[2,3-c]pyridin-6-yl)methanamine] | – | ≥ 10 | > 10000 | 1000 to 10000 | –
CNCC1Cc2ccccc2Oc2ccc(C)nc21 (single isomer, unassigned) [Compound 150, (R*)-(2-methyl-10,11-dihydrobenzo[6,7]oxepino[3,2-b]pyridin-11-yl)-N-methylmethanamine] | – | 1 to 10 | < 1000 | < 1000 | –
CNCC1Oc2ccccc2Oc2cnccc21 (single isomer, unassigned) [Compound 52, (S*)-1-(5H-benzo[2,3][1,4]dioxepino[5,6-c]pyridin-5-yl)-N-methylmethanamine] | – | ≥ 10 | > 10000 | – | 1000 to 10000
Cc1cccc2c1CC(CN)c1ncccc1O2 (single isomer, unassigned) [Compound 140, (S*)-(9-methyl-10,11-dihydrobenzo[6,7]oxepino[3,2-b]pyridin-11-yl)methanamine] | – | ≥ 10 | < 1000 | > 10000 | –
NCC1Cc2cc(Cl)ccc2Oc2cccnc21 (single isomer, unassigned) [Compound 120, (S*)-(8-chloro-10,11-dihydrobenzo[6,7]oxepino[3,2-b]pyridin-11-yl)methanamine] | – | ≥ 10 | < 1000 | 1000 to 10000 | –
NCC1Cc2ncccc2Oc2cc(Cl)ccc21 (single isomer, unassigned) [Compound 171, (R*)-(7-chloro-10,11-dihydrobenzo[6,7]oxepino[3,2-b]pyridin-10-yl)methanamine] | – | ≥ 10 | 1000 to 10000 | < 1000 | –
CCc1ccc2c(n1)C(CN)Cc1ccccc1O2 (single isomer, unassigned) [Compound 151, (R*)-(2-ethyl-10,11-dihydrobenzo[6,7]oxepino[3,2-b]pyridin-11-yl)methanamine] | – | ≥ 10 | < 1000 | < 1000 | –
CCc1ccc2c(n1)C(CNC)Cc1ccccc1O2 (single isomer, unassigned) [Compound 152, (R*)-(2-ethyl-10,11-dihydrobenzo[6,7]oxepino[3,2-b]pyridin-11-yl)-N-methylmethanamine] | – | 1 to 10 | < 1000 | < 1000 | –
CNCC1Oc2ccccc2Oc2cccnc21 (single isomer, unassigned) [Compound 58, (R*)-1-(11H-benzo[2,3][1,4]dioxepino[6,5-b]pyridin-11-yl)-N-methylmethanamine] | 1000 to 10000 | 1 to 10 | < 1000 | – | –
NCC1Cc2ccc(Cl)cc2Oc2cccnc21 (single isomer, unassigned) [Compound 124, (S*)-(7-chloro-10,11-dihydrobenzo[6,7]oxepino[3,2-b]pyridin-11-yl)methanamine] | – | ≥ 10 | < 1000 | 1000 to 10000 | –
CNCC1Cc2ccccc2Oc2cccc(F)c21 (single isomer, unassigned) [Compound 106, (R*)-(9-fluoro-10,11-dihydrodibenzo[b,f]oxepin-10-yl)-N-methylmethanamine] | – | ≥ 10 | < 1000 | < 1000 | –
CNCC1Oc2ccc(F)cc2Oc2ccccc21 (single isomer, unassigned) [Compound 43, (R*)-1-(7-fluoro-11H-dibenzo[b,e][1,4]dioxepin-11-yl)-N-methylmethanamine] | – | < 1 | < 1000 | < 1000 | –
NCC1Cc2c(F)cccc2Oc2cccnc21 (single isomer, unassigned) [Compound 137, (R*)-(9-fluoro-10,11-dihydrobenzo[6,7]oxepino[3,2-b]pyridin-11-yl)methanamine] | – | ≥ 10 | < 1000 | > 10000 | –
CNCC1Cc2ccncc2Oc2ccccc21 (single isomer, unassigned) [Compound 24, (S*)-1-(5,6-dihydrobenzo[6,7]oxepino[2,3-c]pyridin-6-yl)-N-methylmethanamine] | < 1000 | 1 to 10 | > 10000 | – | –
